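Test compounds were applied to cells in 96-well plates for 48 hours at 5 doses. TGI marks complete inhibition of growth.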
What was measured:
Test in all cases: DTP human tumour cell line panel, 48 h
BT-549 breast = system: BT-549 breast
CAKI-1 renal = system: CAKI-1 renal
COLO 205 colon = system: COLO 205 colon
SNB-19 CNS = system: SNB-19 CNS
RXF 393 renal = system: RXF 393 renal
SW-620 colon = system: SW-620 colon
UACC-257 melanoma = system: UACC-257 melanoma
SR leukemia = system: SR leukemia
RPMI-8226 leukemia = system: RPMI-8226 leukemia
MDA-N = system: MDA-N
786-0 renal = system: 786-0 renal

SMILES	TGI (BT-549 breast) [µM]	TGI (CAKI-1 renal) [µM]	TGI (COLO 205 colon) [µM]	TGI (SNB-19 CNS) [µM]	TGI (RXF 393 renal) [µM]	TGI (SW-620 colon) [µM]	TGI (UACC-257 melanoma) [µM]	TGI (SR leukemia) [µM]	TGI (RPMI-8226 leukemia) [µM]	TGI (MDA-N) [µM]	TGI (786-0 renal) [µM]
Fc1ccc(N=C/C=C/Nc2ccc(F)cc2)cc1	27.4	28.2	12.5	26.9	30.5	20.7	26.8	9.17	52	18.5	16.4
COc1cc(C2c3cc4c(cc3OC(Nc3ccccc3)C2C)OCO4)cc(OC)c1O (configuration not stated)	26	> 100	33.5	> 100	19.7	16.3	34		9.86	3.01	21.7
Cc1c(-c2ccccc2)nn2cc(-c3ccccc3)nnc12	87.3	> 100	62	> 100	47.8	49.5	> 100	> 100	> 100	> 100	> 100
O=C(c1ccccc1)n1cc(-c2ccccc2)c2c(=O)[nH]cnc21	> 100	> 100	> 100	> 100	> 100	> 100	> 100		> 100	> 100	> 100
COc1ccc(NC(=O)CC(=O)n2nc(C)c(N=Nc3cccc(C)c3)c2C)cc1	> 100	> 100	> 100	> 100	> 100	> 100		> 100	> 100	> 100	> 100
Cc1cn(CCCCCCC2=NCCCN2)c(=O)[nH]c1=O	> 100	> 100	> 100	> 100	> 100	> 100	> 100		> 100	> 100	> 100
C=CC(OC(C)=O)c1ccc(OC(=O)C(C)C)c(OC)c1 (configuration not stated)	16.4	3.65	7.65	24.6	14.4	7.69	23.5		4.28	16.8	4.25
COc1cc(O)c2c(=O)c3c(C)cccc3n(C)c2c1	> 10	> 10	> 10	> 10	> 10	> 10	> 10		> 10	> 10	> 10
CCOC(=O)c1cc(I)c(-c2cc(C)no2)n1C	> 100	54.7	> 100	> 100	42.8	> 100	> 100		> 100	> 100	> 100
COC12CCCN1c1ccn(Cc3ccccc3)c(=O)c1C2=O (configuration not stated)	> 100	> 100	> 100	> 100	> 100	> 100	> 100	> 100		> 100	> 100

Source: PubChem BioAssay (NCI)
